Entries after “also recorded” stand apart in the source; their conditions may differ.
Experiments:
[1] = molecular target: T1, Aβ1-42 (Homo sapiens, UniProt P05067); assay: Electron microscopy of fibril formation from Aβ1-42 in the presence of ligands; type: biochemical; conditions: Aβ1-42 5 μM with 5 or 25 μM ligand, 37° C., 9 hours
T1 construct: Samples of Aβ1-42 peptide (5 μM) alone or mixed with 5 or 25 μM of each ligand
Description: Samples of Aβ1-42 peptide (5 μM) alone or mixed with 5 or 25 μM of each ligand in a volume of 100 μl, were incubated at 37° C. for 9 hours. Aliquotes of 2 μl were taken from the different samples, adsorbed on copper grids and negatively stained with 2.5% uranyl acetate in 50% ethanol. The samples were examined and photographed using a Hitachi H7100 microscope operated at 75 kV.

[2] = system: kainate-induced gamma oscillations; assay: Control: ligands alone on kainate-induced gamma oscillations in hippocampal slices (absence of Aβ); type: cell-based, C57BL/6 mice
Description: (§1) Experiments were carried out in accordance with ethical permit granted by Norra Stockholms Djurförsöksetiska Nämnd to AF (N45/13). C57BL/6 mice of either sex (postnatal days 14-23, supplied from Charles River, Germany) were used in all experiments. The animals were deeply anaesthetized using isofluorane before being sacrificed by decapitation.
(§2) The brain was dissected out and placed in ice-cold ACSF (artificial cerebrospinal fluid) modified for dissection. This solution contained (in mM); 80 NaCl, 24 NaHCO3, 25 Glucose, 1.25 NaH2PO4, 1 Ascorbic acid, 3 NaPyruvate, 2.5 KCl, 4 MgCl2, 0.5 CaCl2, 75 Sucrose. Horizontal sections (350 μm thick) of the ventral hippocampi of both hemispheres were prepared with a Leica VT1200S vibratome (Microsystems, Stockholm, Sweden). Immediately after slicing sections were transferred to a submerged incubation chamber containing standard ACSF (in mM): 124 NaCl, 30 NaHCO3, 10 Glucose, 1.25 NaH2PO4, 3.5 KCl, 1.5 MgCl2, 1.5 CaCl2. The chamber was held at 34° C. for at least 20 minutes after dissection. It was subsequently allowed to cool to ambient room temperature (19-22° C.) for a minimum of 40 minutes. Peptides were added to the incubation solution 15 minutes before transferring slices to the interface-style recording chamber. While incubating slices were continuously supplied with carbogen gas (5% CO2, 95% O2) bubbled into the ACSF. Chemical compounds used in intracellular and extracellular solutions were obtained from Sigma-Aldrich Sweden AB (Stockholm, Sweden). The Kainic acid was obtained from Tocris.
(§3) Recordings were carried out in hippocampal area CA3 with borosilicate glass microelectrodes, pulled to a resistance of 3-7 MO. Local field potentials (LFP) were recorded at 34° C. using microelectrodes filled with ACSF placed in stratum pyramidale. LFP oscillations were elicited by applying kainic acid (100 nM) to the extracellular bath. The oscillations were allowed to stabilize for 20 minutes before any recordings were carried out. LFP recordings were performed with a 4 channel amplifier/signal conditioner M102-amplifier (Electronics lab, Faculty of Mathematics and Natural Sciences, University of Cologne, Cologne, Germany). The signals were sampled at 10 kHz, conditioned using a Hum Bug 50 Hz noise eliminator (Quest Scientific, North Vancouver, BC, Canada), software low-pass filtered at 1 kHz, digitized and stored using a Digidata 1322A and Clampex 9.6 software (Molecular devices, CA, USA).
(§4) Power spectral density plots (from 60 s long LFP recordings) were calculated in averaged Fourier-segments of 8192 points using Axograph X (Kagi, Berkeley, Calif., USA). Oscillation power was calculated by integrating the power spectral density between 20 and 80 Hz. Data is reported as means±standard errors of the means in the text and as median and upper/lower quartile in the figure box plots. For statistical analysis the Mann-Whitney U-test was used.

[3] = molecular target: T1, Aβ1-42; assay: Prevention of Aβ-induced decrease of kainate-induced gamma oscillations in hippocampal slices (LFP, area CA3); type: cell-based, C57BL/6 mice
Description: as §1, §2, §3, §4

[4] = 50 nM ligand, equimolar (1:1) to 50 nM Aβ1-42, 15 min incubation
[5] = 250 nM ligand with 50 nM Aβ, 15 min incubation

T1 sequence (P05067 672-713 limits assumed): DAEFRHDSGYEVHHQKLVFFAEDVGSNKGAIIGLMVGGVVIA

| Compound | prevention of the Aβ-induced decrease of kainate-induced gamma oscillations [3, 5] | fibril formation by Aβ1-42 (electron microscopy) [1] | effect of ligand alone on kainate-induced gamma oscillations [2] | effectiveness in preventing Aβ-induced degradation of network gamma oscillations compared with first generation ligands [3] | prevention of the Aβ-induced decrease of kainate-induced gamma oscillations [3, 4] | prevention of the Aβ-induced decrease of kainate-induced gamma oscillations ([3]; 50 nM ligand, equimolar (1:1) to 50 nM Aβ1-42, 15 min incubation, listed as DH-20) |
| --- | --- | --- | --- | --- | --- | --- |
| CCCCCCCC[C@H](N)CNCC[C@H](N)C(=O)N[C@H](CCN1C(=O)c2cccc3c(N(C)C)ccc(c23)C1=O)C(=O)NCC[C@@H](NC(=O)CCCC(=O)O)C(=O)O [8AEDabDmnDabGla, HO-Gla-D-Dab-(COOH)-D-DMNA-L-Dap-(NH2)—CH2CH(NH2)—C8] | – | less fibrils | – | – | – | – |
| CCCCCCCCCC(=O)NCCNC[C@H](N)C(=O)N[C@H](Cc1c[nH]c2ccccc12)C(=O)NCC[C@@H](NC(=O)CCCC(=O)O)C(=O)O [DH18, (R)—N^4—[N^2—(N^3—(N-decanoyl-2-aminoethyl)-(S)-2,3-diaminopropionyl)-D-tryptophanyl]-N^2-glutanoyl-2,4-diaminobutanoic acid] | – | – | no effect | – | – | – |
| CCCCCCCCCC(=O)NCCNC[C@H](N)C(=O)N[C@H](CCN1C(=O)c2cccc3c(N(C)C)ccc(c23)C1=O)C(=O)NCC[C@@H](NC(=O)CCCC(=O)O)C(=O)O [DH18_Dmn, HO-Gla-D-Dab-(COOH)-D-DMNA-L-Dap-(NH2)-AE-decanoyl] | – | less fibrils | neither of these ligands had an effect | more effective than first generation ligands | complete prevention; also recorded: effective also at only a 1:1 ratio; also recorded: reverse Aβ-induced reduction of gamma oscillation; also recorded: prevention of Aβ-induced degradation of network gamma oscillations | – |
| NC(=O)CCCCCCCCCCC(=O)NCCNC[C@H](N)C(=O)N[C@H](Cc1c[nH]c2ccccc12)C(=O)NCC[C@@H](NC(=O)CCCC(=O)O)C(=O)O [DH20, (R)—N^4—[N^2—(N^3—(N-(12-amino-12-oxododecanoyl)-2-aminoethyl)-(S)-2,3-diaminopropionyl)-D-tryptophanyl]-N^2-glutanoyl-2,4-diaminobutanoic acid] | complete prevention; also recorded: reverses Aβ-induced reduction of gamma oscillation | less fibrils | neither of these ligands had an effect; also recorded: no effect | more effective than first generation ligands | complete prevention | effective also at only a 1:1 ratio; also recorded: reverse Aβ-induced reduction of gamma oscillation |
| CCCCCCCCCC(=O)NCCNCCN [Dec-DETA, reference compound] | higher prevention | – | neither of these ligands had an effect | – | – | – |
| N=C(N)CCNCCCC(N)C(=O)NC(Cc1c[nH]c2ccccc12)C(=O)NCCC(NC(=O)CCCC(=O)O)C(=O)O (centres unmarked) [Pep1b, reference compound] | only partial prevention | fibrils were formed but to somewhat lesser extent | neither of these ligands had an effect | – | – | – |
